Results taken from the NIST ThermoML archive (doi:10.1021/je800579j).
± gives the expanded uncertainty stated by the source.

Assay: refractive index (Na D-line) (dimensionless); xn = mol fraction of the nth substance listed
Conditions: Liquid, Standard Abbe refractometry

C1COCCO1 [1,4-dioxane] + c1ccccc1
refractive index
Conditions	288.15 K	293.15 K	298.15 K	303.15 K	308.15 K	313.15 K	318.15 K
x1 = 0.0713	1.4982 ± 0.0007	1.4951 ± 0.0007	1.4921 ± 0.0007	1.489 ± 0.0007	1.4859 ± 0.0007	1.4829 ± 0.0007	1.4798 ± 0.0007
x1 = 0.1403	1.4924 ± 0.0007	1.4894 ± 0.0007	1.4864 ± 0.0007	1.4834 ± 0.0007	1.4803 ± 0.0007	1.4773 ± 0.0007	1.4743 ± 0.0007
x1 = 0.2123	1.4864 ± 0.0007	1.4835 ± 0.0007	1.4805 ± 0.0007	1.4775 ± 0.0007	1.4746 ± 0.0007	1.4716 ± 0.0007	1.4686 ± 0.0007
x1 = 0.2809	1.4807 ± 0.0007	1.4778 ± 0.0007	1.4749 ± 0.0007	1.472 ± 0.0007	1.4691 ± 0.0007	1.4662 ± 0.0007	1.4633 ± 0.0007
x1 = 0.3528	1.4748 ± 0.0007	1.472 ± 0.0007	1.4692 ± 0.0007	1.4663 ± 0.0007	1.4635 ± 0.0007	1.4607 ± 0.0007	1.4578 ± 0.0007
x1 = 0.4195	1.4694 ± 0.0007	1.4666 ± 0.0007	1.4639 ± 0.0007	1.4611 ± 0.0007	1.4583 ± 0.0007	1.4556 ± 0.0007	1.4528 ± 0.0007
x1 = 0.5037	1.4626 ± 0.0007	1.4599 ± 0.0007	1.4573 ± 0.0007	1.4546 ± 0.0007	1.4519 ± 0.0007	1.4492 ± 0.0007	1.4465 ± 0.0007
x1 = 0.58	1.4565 ± 0.0007	1.4539 ± 0.0007	1.4513 ± 0.0007	1.4487 ± 0.0007	1.4461 ± 0.0007	1.4435 ± 0.0007	1.4409 ± 0.0007
x1 = 0.6504	1.451 ± 0.0007	1.4484 ± 0.0007	1.4459 ± 0.0006	1.4434 ± 0.0006	1.4409 ± 0.0007	1.4383 ± 0.0007	1.4357 ± 0.0007
x1 = 0.7197	1.4456 ± 0.0006	1.4432 ± 0.0006	1.4407 ± 0.0006	1.4382 ± 0.0006	1.4358 ± 0.0006	1.4332 ± 0.0007	1.4307 ± 0.0006
x1 = 0.7822	1.4408 ± 0.0006	1.4384 ± 0.0006	1.436 ± 0.0006	1.4336 ± 0.0006	1.4312 ± 0.0006	1.4287 ± 0.0006	1.4263 ± 0.0006
x1 = 0.8561	1.4352 ± 0.0006	1.4329 ± 0.0006	1.4306 ± 0.0006	1.4283 ± 0.0006	1.426 ± 0.0006	1.4236 ± 0.0006	1.4212 ± 0.0006
x1 = 0.9287	1.4298 ± 0.0006	1.4276 ± 0.0006	1.4254 ± 0.0006	1.4232 ± 0.0006	1.421 ± 0.0006	1.4187 ± 0.0006	1.4164 ± 0.0006
x1 = 1	1.4245 ± 0.0006	1.4224 ± 0.0006	1.4203 ± 0.0006	1.4182 ± 0.0006	1.4161 ± 0.0006	1.4139 ± 0.0006	1.4117 ± 0.0006
